From ChEMBL document CHEMBL4219213, “The design, synthesis and structure-activity relationships associated with C28 amine-based betulinic acid derivatives as inhibitors of HIV-1 maturation” (Bioorg Med Chem Lett, 2018)

Tests used:
[1] = in vitro; conditions: rat, liver microsomes
Description: Half life in rat liver microsomes at 0.5 uM in presence of NADPH by LC-MS/MS method

[2] = in vitro; conditions: human, liver microsomes
Description: Half life in human liver microsomes at 0.5 uM in presence of NADPH by LC-MS/MS method

[3] = in vitro; conditions: mouse, liver microsomes
Description: Half life in mouse liver microsomes at 0.5 uM in presence of NADPH by LC-MS/MS method

[4] = cells; conditions: Human immunodeficiency virus 1, subtype B NL4-3, MT2
[5] = in vivo; conditions: Sprague-Dawley, rat, po, 5 mg/kg
[6] = in vitro; conditions: human, MT2 cells
Description: Cytotoxicity against human MT2 cells

[7] = in vivo; conditions: Sprague-Dawley, rat, po, 5 mg/kg; remark: listed apart in the source
[8] = Dissociation constant, pKa of the compound; assay type: physicochemical

Row | Compound | half-life at 0.5 µM [1] [h] | half-life at 0.5 µM [2] [h] | half-life at 0.5 µM [3] [h] | IC50 [4] [nM] | AUC(0-t) at 24 h [5] [µM·h] | CC50 [6] [nM] | AUC(0-t) at 6 h [7] [µM·h] | pKa [8]
1 | C=C(C)[C@@H]1CC[C@]2(C(=O)O)CC[C@]3(C)[C@H](CC[C@@H]4[C@@]5(C)CC=C(c6ccc(C(=O)O)cc6)C(C)(C)[C@@H]5CC[C@]43C)[C@@H]12 | > 2 | > 2 | > 2 | > 6000 | – | – | – | –
2 | C=C(C)[C@@H]1CC[C@]2(CNCCN(C)C)CC[C@]3(C)[C@H](CC[C@@H]4[C@@]5(C)CC=C(c6ccc(C(=O)O)cc6)C(C)(C)[C@@H]5CC[C@]43C)[C@@H]12 | > 2 | > 2 | > 2 | 21 | 1.28 | 1200 | – | –
3 | C=C(C)[C@@H]1CC[C@]2(CNCCCN3CCCC3=O)CC[C@]3(C)[C@H](CC[C@@H]4[C@@]5(C)CC=C(c6ccc(C(=O)O)cc6)C(C)(C)[C@@H]5CC[C@]43C)[C@@H]12 | – | – | – | 9.9 | – | 5800 | 1.04 | –
4 | C=C(C)[C@@H]1CC[C@]2(CN(CCCN3CCS(=O)(=O)CC3)C3CC3)CC[C@]3(C)[C@H](CC[C@@H]4[C@@]5(C)CC=C(c6ccc(C(=O)O)cc6)C(C)(C)[C@@H]5CC[C@]43C)[C@@H]12 | > 2 | > 2 | > 2 | 43 | – | 7000 | – | –
5 | C=C(C)[C@@H]1CC[C@]2(CNCCN3CCOCC3)CC[C@]3(C)[C@H](CC[C@@H]4[C@@]5(C)CC=C(c6ccc(C(=O)O)cc6)C(C)(C)[C@@H]5CC[C@]43C)[C@@H]12 | > 2 | 1.62 | 1.5 | 15 | – | 5000 | – | 8.2
6 | C=C(C)[C@@H]1CC[C@]2(CNCCN3CCCCC3)CC[C@]3(C)[C@H](CC[C@@H]4[C@@]5(C)CC=C(c6ccc(C(=O)O)cc6)C(C)(C)[C@@H]5CC[C@]43C)[C@@H]12 | – | – | – | 37 | – | 4000 | – | –
7 | C=C(C)[C@@H]1CC[C@]2(CNCCc3ccc(S(N)(=O)=O)cc3)CC[C@]3(C)[C@H](CC[C@@H]4[C@@]5(C)CC=C(c6ccc(C(=O)O)cc6)C(C)(C)[C@@H]5CC[C@]43C)[C@@H]12 | – | – | – | 16 | – | 2400 | 0.288 | –
8 | C=C(C)[C@@H]1CC[C@]2(CNCCN3CCS(=O)(=O)CC3)CC[C@]3(C)[C@H](CC[C@@H]4[C@@]5(C)CC=C(c6ccc(C(=O)O)cc6)C(C)(C)[C@@H]5CC[C@]43C)[C@@H]12 | 1.8 | > 2 | > 2 | 6 | – | 2600 | 2.05 | –
9 | C=C(C)[C@@H]1CC[C@]2(CNCCN3CCNCC3)CC[C@]3(C)[C@H](CC[C@@H]4[C@@]5(C)CC=C(c6ccc(C(=O)O)cc6)C(C)(C)[C@@H]5CC[C@]43C)[C@@H]12 | 1.43 | > 2 | – | – | – | 2300 | – | –
10 | C=C(C)[C@@H]1CC[C@]2(CNCCNC(C)=O)CC[C@]3(C)[C@H](CC[C@@H]4[C@@]5(C)CC=C(c6ccc(C(=O)O)cc6)C(C)(C)[C@@H]5CC[C@]43C)[C@@H]12 | – | – | – | 37 | – | 6300 | – | –
11 | C=C(C)[C@@H]1CC[C@]2(CNCCCN3CCN(C)CC3)CC[C@]3(C)[C@H](CC[C@@H]4[C@@]5(C)CC=C(c6ccc(C(=O)O)cc6)C(C)(C)[C@@H]5CC[C@]43C)[C@@H]12 | > 2 | > 2 | > 2 | 16 | – | 700 | – | –
12 | C=C(C)[C@@H]1CC[C@]2(CN(C)CCCN3CCS(=O)(=O)CC3)CC[C@]3(C)[C@H](CC[C@@H]4[C@@]5(C)CC=C(c6ccc(C(=O)O)cc6)C(C)(C)[C@@H]5CC[C@]43C)[C@@H]12 | > 2 | > 2 | > 2 | 26 | 9.06 | 10000 | 4.83 | –
13 | C=C(C)[C@@H]1CC[C@]2(CNCCCNCCO)CC[C@]3(C)[C@H](CC[C@@H]4[C@@]5(C)CC=C(c6ccc(C(=O)O)cc6)C(C)(C)[C@@H]5CC[C@]43C)[C@@H]12 | > 2 | > 2 | – | 18 | – | 320 | – | –
14 | C=C(C)[C@@H]1CC[C@]2(CN(CCN(C)C)C(=O)CCC(=O)O)CC[C@]3(C)[C@H](CC[C@@H]4[C@@]5(C)CC=C(c6ccc(C(=O)O)cc6)C(C)(C)[C@@H]5CC[C@]43C)[C@@H]12 | – | – | – | 650 | – | 30000 | 4.39 | –
15 | C=C(C)[C@@H]1CC[C@]2(CNC(=O)CNC)CC[C@]3(C)[C@H](CC[C@@H]4[C@@]5(C)CC=C(c6ccc(C(=O)O)cc6)C(C)(C)[C@@H]5CC[C@]43C)[C@@H]12 | – | – | – | 27 | – | 16000 | 0.54 | –
16 | C=C(C)[C@@H]1CC[C@]2(CNCCN(C(C)C)C(C)C)CC[C@]3(C)[C@H](CC[C@@H]4[C@@]5(C)CC=C(c6ccc(C(=O)O)cc6)C(C)(C)[C@@H]5CC[C@]43C)[C@@H]12 | – | – | – | 35 | – | 3700 | – | –
17 | C=C(C)[C@@H]1CC[C@]2(CNCCCO)CC[C@]3(C)[C@H](CC[C@@H]4[C@@]5(C)CC=C(c6ccc(C(=O)O)cc6)C(C)(C)[C@@H]5CC[C@]43C)[C@@H]12 | > 2 | > 2 | – | 55 | – | 4600 | – | –
18 | C=C(C)[C@@H]1CC[C@]2(CNCCN(CCO)CCO)CC[C@]3(C)[C@H](CC[C@@H]4[C@@]5(C)CC=C(c6ccc(C(=O)O)cc6)C(C)(C)[C@@H]5CC[C@]43C)[C@@H]12 | – | – | – | 8.4 | – | 6800 | – | –
19 | C=C(C)[C@@H]1CC[C@]2(CNCCN(CC)CC)CC[C@]3(C)[C@H](CC[C@@H]4[C@@]5(C)CC=C(c6ccc(C(=O)O)cc6)C(C)(C)[C@@H]5CC[C@]43C)[C@@H]12 | 1.3 | > 2 | > 2 | 35 | – | 20000 | – | –
20 | C=C(C)[C@@H]1CC[C@]2(CNCCn3ccnc3)CC[C@]3(C)[C@H](CC[C@@H]4[C@@]5(C)CC=C(c6ccc(C(=O)O)cc6)C(C)(C)[C@@H]5CC[C@]43C)[C@@H]12 | – | – | – | 9.3 | – | 12000 | 0.223 | –
21 | C=C(C)[C@@H]1CC[C@]2(CNCCc3ccccn3)CC[C@]3(C)[C@H](CC[C@@H]4[C@@]5(C)CC=C(c6ccc(C(=O)O)cc6)C(C)(C)[C@@H]5CC[C@]43C)[C@@H]12 | – | – | – | – | – | 7400 | – | –
22 | C=C(C)[C@@H]1CC[C@]2(CNCCCN(C)c3ccccc3)CC[C@]3(C)[C@H](CC[C@@H]4[C@@]5(C)CC=C(c6ccc(C(=O)O)cc6)C(C)(C)[C@@H]5CC[C@]43C)[C@@H]12 | > 2 | > 2 | > 2 | 60 | – | 11000 | 0.962 | –
23 | C=C(C)[C@@H]1CC[C@]2(CNCCCN(C)C)CC[C@]3(C)[C@H](CC[C@@H]4[C@@]5(C)CC=C(c6ccc(C(=O)O)cc6)C(C)(C)[C@@H]5CC[C@]43C)[C@@H]12 | – | – | – | 200 | – | 4500 | 0.01 | –
24 | C=C(C)[C@@H]1CC[C@]2(CNCCNCCO)CC[C@]3(C)[C@H](CC[C@@H]4[C@@]5(C)CC=C(c6ccc(C(=O)O)cc6)C(C)(C)[C@@H]5CC[C@]43C)[C@@H]12 | 1.95 | > 2 | – | 20 | – | 2000 | – | –
25 | C=C(C)[C@@H]1CC[C@]2(CNCCCN)CC[C@]3(C)[C@H](CC[C@@H]4[C@@]5(C)CC=C(c6ccc(C(=O)O)cc6)C(C)(C)[C@@H]5CC[C@]43C)[C@@H]12 | > 2 | > 2 | > 2 | 40 | – | 120 | – | –
26 | C=C(C)[C@@H]1CC[C@]2(CNCCCN3CCCCC3)CC[C@]3(C)[C@H](CC[C@@H]4[C@@]5(C)CC=C(c6ccc(C(=O)O)cc6)C(C)(C)[C@@H]5CC[C@]43C)[C@@H]12 | 1.37 | 1.32 | 1.5 | 6.4 | – | 240 | – | –
27 | C=C(C)[C@@H]1CC[C@]2(CNCCN3CCN(C)CC3)CC[C@]3(C)[C@H](CC[C@@H]4[C@@]5(C)CC=C(c6ccc(C(=O)O)cc6)C(C)(C)[C@@H]5CC[C@]43C)[C@@H]12 | – | – | – | 14 | – | 970 | – | –
